According to the supplement of paper PMC10307832:

How the values were obtained:
Assay in all cases: relative viability (nuclei count vs DMSO), 5 days (fraction); higher = more cells survive
Dabrafenib + Luminespib = compound: CC(C)(C)c1nc(-c2cccc(NS(=O)(=O)c3c(F)cccc3F)c2F)c(-c2ccnc(N)n2)s1 [Dabrafenib] + CCNC(=O)c1noc(-c2cc(C(C)C)c(O)cc2O)c1-c1ccc(CN2CCOCC2)cc1 [Luminespib] (partner 0.01 µM)
How it was run: (§1)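 Relative viability divides the nuclei count in treated wells by that in vehicle wells. Lung cancer cell lines were seeded in 1536-well plates, dosed by pin tool the next day, and fixed and stained after 5 days in one step with final 0.05% Triton X-100, 1% formaldehyde and 1 ug/ml Hoechst. Dosing was a single drug or a fixed anchor-drug dose plus five library-drug doses (not always all listed) in √10 steps, and values are medians of duplicate plates imaged at 4×.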

Dabrafenib + Olaparib = compound: CC(C)(C)c1nc(-c2cccc(NS(=O)(=O)c3c(F)cccc3F)c2F)c(-c2ccnc(N)n2)s1 [Dabrafenib] + O=C(c1cc(Cc2n[nH]c(=O)c3ccccc23)ccc1F)N1CCN(C(=O)C2CC2)CC1 [Olaparib] (partner 8 µM)
How it was run: as §1

VX-702 + Pictilisib = compound: NC(=O)c1ccc(N(C(N)=O)c2c(F)cccc2F)nc1-c1ccc(F)cc1F [VX-702] + CS(=O)(=O)N1CCN(Cc2cc3nc(-c4cccc5[nH]ncc45)nc(N4CCOCC4)c3s2)CC1 [Pictilisib] (partner 1 µM)
How it was run: as §1

VX-702 + AZD7762 = compound: NC(=O)c1ccc(N(C(N)=O)c2c(F)cccc2F)nc1-c1ccc(F)cc1F [VX-702] + NC(=O)Nc1cc(-c2cccc(F)c2)sc1C(=O)N[C@H]1CCCNC1 [AZD7762] (partner 0.2 µM)
How it was run: as §1

| Cell Line | relative viability (Dabrafenib + Luminespib; first compound 0.003 µM) | relative viability (Dabrafenib + Luminespib; first compound 0.009487 µM) | relative viability (Dabrafenib + Luminespib; first compound 0.03 µM) | relative viability (Dabrafenib + Luminespib; first compound 0.09487 µM) | relative viability (Dabrafenib + Luminespib; first compound 0.3 µM) | relative viability (Dabrafenib + Olaparib; first compound 0.003 µM) | relative viability (Dabrafenib + Olaparib; first compound 0.009487 µM) | relative viability (Dabrafenib + Olaparib; first compound 0.03 µM) | relative viability (Dabrafenib + Olaparib; first compound 0.09487 µM) | relative viability (Dabrafenib + Olaparib; first compound 0.3 µM) | relative viability (VX-702 + Pictilisib; first compound 0.02 µM) | relative viability (VX-702 + Pictilisib; first compound 0.2 µM) | relative viability (VX-702 + Pictilisib; first compound 0.6325 µM) | relative viability (VX-702 + Pictilisib; first compound 2 µM) | relative viability (VX-702 + AZD7762; first compound 0.02 µM) | relative viability (VX-702 + AZD7762; first compound 0.2 µM) | relative viability (VX-702 + AZD7762; first compound 0.6325 µM) | relative viability (VX-702 + AZD7762; first compound 2 µM) |
| --- | --- | --- | --- | --- | --- | --- | --- | --- | --- | --- | --- | --- | --- | --- | --- | --- | --- | --- |
| NCI-H1975 | 0.159 | 0.189 | 0.165 | 0.278 | 0.191 | 0.723 | 0.758 | 0.706 | 0.681 | 0.718 | 0.27 | 0.283 | 0.384 | 0.316 | 0.663 | 0.741 | 0.763 | 0.815 |
| NCI-H2085 | 0.402 | 0.484 | 0.453 | 0.428 | 0.51 | 0.759 | 0.769 | 0.823 | 0.71 | 0.854 | 0.429 | 0.47 | 0.466 | 0.4 | 1.04 | 1.01 | 1.06 | 1.03 |
| NCI-H460 | 0.0327 | 0.0312 | 0.0334 | 0.042 | 0.0437 | 0.493 | 0.398 | 0.397 | 0.362 | 0.385 | 0.361 | 0.153 | 0.295 | 0.257 | 0.732 | 0.585 | 0.721 | 0.638 |
| NCI-H1755 | 0.407 | 0.542 | 0.434 | 0.519 | 0.577 | 0.845 | 0.819 | 0.788 | 0.859 | 0.886 | 0.395 | 0.389 | 0.409 | 0.486 | 0.456 | 0.442 | 0.447 | 0.367 |
| PC-14 |  | 0.272 | 0.158 | 0.149 | 0.115 | 0.237 | 0.293 | 0.241 | 0.283 | 0.338 | 0.629 | 0.608 | 0.625 | 0.807 | 0.411 | 0.353 | 0.37 | 0.265 |
| 201T | 1.08 | 1.1 | 0.967 | 0.983 | 1.06 | 0.87 | 0.836 | 0.762 | 0.811 | 0.841 | 0.698 | 0.634 | 0.676 | 0.668 | 0.585 | 0.561 | 0.509 | 0.449 |
| A-427 |  | 1 | 0.772 | 0.744 | 1.14 | 0.704 | 0.685 | 0.707 | 0.658 | 0.726 | 0.786 | 0.706 | 0.701 | 0.566 | 0.742 | 0.699 | 0.661 | 0.738 |
| NCI-H1734 |  | 0.175 | 0.207 | 0.203 | 0.198 |  | 0.69 | 0.504 | 0.465 | 0.557 | 0.516 | 0.388 | 0.388 | 0.346 | 0.561 | 0.448 | 0.521 | 0.465 |
